# From patent US20250041283A1, “COCRYSTAL OF AN IDH1 INHIBITOR, PROCESS OF PREPARATION THEREOF, PHARMACEUTICAL COMPOSITIONS THEREOF, AND METHODS OF TREATMENT INVOLVING THE SAME” (Servier Pharmaceuticals LLC, priority 2023, published 2025)
# What was measured:
# [1] = Solubility in biorelevant media (SGF, FASSIF); format: physicochemical; settings: thermodynamic from solid, 37° C., after 1 h
# [2] = Physicochemical stability of cocrystal powder stressed at different temperatures and humidities (XRPD); settings: 6 weeks and 12 months at 25° C./60% RH, 25° C./90% RH, 40° C./75% RH and 50° C.
# Procedure: (§1) FIG. 5 depicts the overlay of the X-ray diffraction spectra of the glutaric acid cocrystal type A of Compound 1 stressed 6 weeks at 25° C./60% RH, 25° C./90% RH, 40° C./75% RH and 50° C. with the theoretical X-ray diffraction spectrum of the said cocrystal (calculated form the single crystal structure).
# as §1, with “FIG. 6” for “FIG. 5”, “stressed 12 months” for “stressed 6 weeks”
# The XRPD patterns were recorded from 3.5° 2q to 35° 2q using an Empyrean diffractometer from Panalytical operating in the transmission mode with CuKα radiation (l=1.5418 Å) at 45 kV and 40 mA and with a 0.013° 2q step size for 15 minutes (list of examples).
# [3] = Sorption/desorption isotherm 0% RH to 90% RH at 25° C.; format: physicochemical
# Procedure: The sorption isotherm of the cocrystal was recorded between 0% RH and 90% RH at 25° C. (see FIG. 7).
# The sorption/desorption isotherm of the cocrystal was recorded using the following method: • Equilibrate the sample at 0% RH until the dm/dt was below 0.0005% for 30 consecutive minutes or until maximum 24 hours. • Increase of the relative humidity up to 90% RH with step every 10% RH. Each step was maintained until the dm/dt was below 0.0005% for 30 consecutive minutes or until maximum 24 hours. • Decrease of the relative humidity up to 0% RH with step every 10% RH. Each step was maintained until the dm/dt was below 0.0005% for 30 consecutive minutes or until maximum 24 hours.
# [4] = Tablets by direct compression: hardness and tensile strength; format: physicochemical; settings: 50 mg tablets, 0.5% magnesium stearate
# Procedure: Tablets were prepared by direct compression using a STYL'ONE EVO compaction simulator from Medelpharm Instruments.
# Compound 1, either in Form 1, Form T11 or as a glutaric acid cocrystal type A was lubricated by 0.5% magnesium stearate before compression. 99.5% of Compound 1 and 0.5% of magnesium stearate (e.g., 4.975 g of Compound 1 and 0.025 g of magnesium stearate) were used. Compound 1 was weighed, and magnesium stearate was sifted on a 0.4 mm sieve and added progressively to Compound 1. The mixture was homogenized using a Turbula T2F blender for 5 minutes.
# 50 mg tablets were prepared using a STYL'ONE EVO compaction simulator applying a compressing force of 2.5 kN or 5.0 kN.
# [5] = Flowability of lubricated mixtures (European Pharmacopeia); format: physicochemical
# Procedure: The flowability of the lubricated mixture previously prepared was measured according to the Guidelines of European Pharmacopeia.
# [6] = Comparative rat PK study, oral capsules; format: in vivo; settings: male Wistar rats, 24 mg/kg
# Procedure: The objective of this study was to compare the pharmacokinetics (PK) of four oral (PO) dosage forms of Compound 1 in male Wistar rats (4 groups, N=3/group). Lubricated mixtures prepared from Examples 5A (prepared from Form 1 and Form T11) and 5B (prepared from cocrystal of Example 1) and amorphous solid dispersion of Compound 1 obtained through spray drying as in commercial batches were manually and individually filled in capsules (Size 9).
# The administered dose was 24 mg/kg, considering that each rat's weight was around 250 g.
# Methods: Animals were fasted approximately 6 hours before dosing and fed 3 at 4 hours post-dose. All animals had free access to water. Compound 1 dose were given to rats via oral gavage (2 capsules/one single administration). Blood samples were collected via the saphenous vein into test tubes containing potassium ethylenediaminetetraacetic acid (K2EDTA) from all animals at 0.25, 0.5, 1, 2, 4, 8, 24, 48 and 72 hours post-dose. Blood sample were centrifuged at 2000 g for 5 minutes to obtain plasma samples. Compound 1 concentration in plasma samples was quantified using a liquid chromatography with tandem mass spectrometry (LC-MS/MS) method. The lower limit of quantification was 1.00 ng/mL with a sample volume of 20 μL.
# [7] = Four weeks stability study of lubricated mixtures and tablets (XRPD); format: physicochemical; settings: 4 weeks, open vials, 25° C./60% RH and 40° C./75% RH
# Procedure: Four weeks stability of samples of lubricated mixtures of Example 3B and 5B and tablets of Example 6 prepared from cocrystal of Example 1 was tested according to the following protocol.
# All the samples were stored 4 weeks in controlled temperature and humidity chambers in open vials at 25° C./60% RH or 40° C./75% RH. The XPRD analyses were performed extemporaneously in order to be representative of all the samples at temperature and humidity equilibria.
# Tablets of Cocrystal+AQ/AV or AV (from Example 6) were gently grinded leading a powder suitable for XRPD analysis. Lubricated mixtures from Examples 3B and 5B were analyzed without grinding. The XRPD patterns were recorded from 3.5° 2q to 35° 2q using an Empyrean diffractometer from Panalytical operating in the transmission mode with CuKα radiation (l=1.5418 Å) at 45 kV and 40 mA and with a 0.013° 2q step size for 30 minutes.
# [8] = compressive force applied 2.5 kN
# [9] = compressive force applied 5.0 kN
# [10] = lubricated mixtures of Examples 3A and 3B
smiles,measurement,setting,value
N#Cc1ccnc(N2C(=O)CC[C@H]2C(=O)N(c2cncc(F)c2)[C@H](C(=O)NC2CC(F)(F)C2)c2ccccc2Cl)c1 [Glutaric acid cocrystal of Compound 1],solubility at 1 h,"[1]; simulated gastric fluid, SGF",8 µg/mL
same,solubility at 1 h,[1]; FASSIF,13 µg/mL
same,Physicochemical stability of the powder,[2],physicochemically stable
same,Stability in humidity conditions (sorption isotherm),[3],stable
same,Tablet hardness,[4]; [8],41.6 N
same,Tensile strength,[4]; [8],2.562 MPa
same,Tablet hardness,[4]; [9],46.4 N
same,Tensile strength,[4]; [9],2.998 MPa
same,Carr's Index,[5]; [10],24%
same,Carr's Index (flowability) rating,[5]; [10],Adequate
same,Flowability,[5]; [10],suitable flowability
same,Hausner ratio,[5]; [10],1.32
same,Hausner ratio (cohesion + compressibility) rating,[5]; [10],Adequate
same,Flow time,"[5]; lubricated mixtures of Examples 3A and 3B (AV, without AQ), N.S.F. = no spontaneous flow detected",8.3 s
same,Inter-individual variability,[6],11%
same,Kinetics of absorption / absorption profile versus commercial formulation,[6],comparable to the one of the commercial formulation
same,bioavailability,"[6]; rat, plasma, read-out: Relative bioavailability compared to commercial formulation",61%
same,Stability of the cocrystal in lubricated mixtures and tablets (AQ/AV or AV),[7],perfectly stable
